Test results taken from the NIST ThermoML archive (doi:10.1021/je060203o).

Settings: Liquid; for speed of sound: Pulse-echo method; for mass density: Vibrating tube method

CCCCCn1cc[n+](C)c1.O=S(=O)([N-]S(=O)(=O)C(F)(F)F)C(F)(F)F
Settings	mass density [kg/m3]	speed of sound [m/s]
288.15 K, 500 kPa	–	1255.5
288.15 K, 3500 kPa	–	1266
288.15 K, 7000 kPa	–	1278.1
288.15 K, 10000 kPa	–	1288.3
288.15 K, 13500 kPa	–	1299.9
288.15 K, 16990 kPa	–	1311.2
288.15 K, 20000 kPa	–	1320.7
288.15 K, 30000 kPa	–	1351.7
288.15 K, 40000 kPa	–	1380.9
288.15 K, 50000 kPa	–	1409
288.15 K, 60000 kPa	–	1435.6
288.15 K, 70000 kPa	–	1461.2
288.15 K, 80000 kPa	–	1486
288.15 K, 90000 kPa	–	1509.9
288.15 K, 100000 kPa	–	1533
288.15 K, 112500 kPa	–	1560.9
288.15 K, 125000 kPa	–	1587.9
288.15 K, 137510 kPa	–	1613.5
288.15 K, 150000 kPa	–	1637.8
298.15 K, 100 kPa	1404.45	–
298.15 K, 500 kPa	–	1232.1
298.15 K, 1830 kPa	1405.67	–
298.15 K, 3500 kPa	–	1242.7
298.15 K, 7000 kPa	–	1255
298.15 K, 10000 kPa	–	1265.5
298.15 K, 10020 kPa	1411.85	–
298.15 K, 13500 kPa	–	1277.3
298.15 K, 14980 kPa	1415.45	–
298.15 K, 16990 kPa	–	1288.9
298.15 K, 19750 kPa	1418.8	–
298.15 K, 20000 kPa	–	1298.6
298.15 K, 25860 kPa	1422.94	–
298.15 K, 30000 kPa	–	1330.5
298.15 K, 31480 kPa	1426.64	–
298.15 K, 37770 kPa	1430.64	–
298.15 K, 40000 kPa	–	1360.4
298.15 K, 44170 kPa	1434.54	–
298.15 K, 50000 kPa	–	1388.9
298.15 K, 50750 kPa	1438.46	–
298.15 K, 59590 kPa	1443.56	–
298.15 K, 60000 kPa	–	1415.9
298.15 K, 70000 kPa	–	1441.9
298.15 K, 80000 kPa	–	1467
298.15 K, 90000 kPa	–	1491.1
298.15 K, 100000 kPa	–	1514.5
298.15 K, 112500 kPa	–	1542.6
298.15 K, 125000 kPa	–	1569.7
298.15 K, 137510 kPa	–	1595.7
298.15 K, 150000 kPa	–	1620.3
299.15 K, 100 kPa	1403.5	–
299.15 K, 1830 kPa	1404.78	–
299.15 K, 10020 kPa	1410.92	–
299.15 K, 14980 kPa	1414.53	–
299.15 K, 19750 kPa	1417.87	–
299.15 K, 25860 kPa	1422.01	–
299.15 K, 31480 kPa	1425.7	–
299.15 K, 37770 kPa	1429.73	–
299.15 K, 44170 kPa	1433.68	–
299.15 K, 50750 kPa	1437.64	–
299.15 K, 59590 kPa	1442.74	–
300.15 K, 100 kPa	1402.62	–
300.15 K, 1830 kPa	1403.85	–
300.15 K, 10020 kPa	1410.01	–
300.15 K, 14980 kPa	1413.57	–
300.15 K, 19750 kPa	1416.91	–
300.15 K, 25860 kPa	1421.12	–
300.15 K, 31480 kPa	1424.81	–
300.15 K, 37770 kPa	1428.87	–
300.15 K, 44170 kPa	1432.84	–
300.15 K, 50750 kPa	1436.83	–
300.15 K, 59590 kPa	1441.99	–
301.15 K, 100 kPa	1401.81	–
301.15 K, 1830 kPa	1403.07	–
301.15 K, 10020 kPa	1409.19	–
301.15 K, 14980 kPa	1412.71	–
301.15 K, 19750 kPa	1416.05	–
301.15 K, 25860 kPa	1420.19	–
301.15 K, 31480 kPa	1423.9	–
301.15 K, 37770 kPa	1427.94	–
301.15 K, 44170 kPa	1431.88	–
301.15 K, 50750 kPa	1435.89	–
301.15 K, 59590 kPa	1441.12	–
302.15 K, 100 kPa	1400.89	–
302.15 K, 1830 kPa	1402.16	–
302.15 K, 10020 kPa	1408.28	–
302.15 K, 14980 kPa	1411.85	–
302.15 K, 19750 kPa	1415.2	–
302.15 K, 25860 kPa	1419.36	–
302.15 K, 31480 kPa	1423.08	–
302.15 K, 37770 kPa	1427.17	–
302.15 K, 44170 kPa	1431.17	–
302.15 K, 50750 kPa	1435.18	–
302.15 K, 59590 kPa	1440.42	–
303.15 K, 100 kPa	1399.89	–
303.15 K, 1830 kPa	1401.18	–
303.15 K, 10020 kPa	1407.27	–
303.15 K, 14980 kPa	1410.82	–
303.15 K, 19750 kPa	1414.3	–
303.15 K, 25860 kPa	1418.46	–
303.15 K, 31480 kPa	1422.18	–
303.15 K, 37770 kPa	1426.25	–
303.15 K, 44170 kPa	1430.26	–
303.15 K, 50750 kPa	1434.31	–
303.15 K, 59590 kPa	1439.59	–
308.15 K, 100 kPa	1395.34	–
308.15 K, 500 kPa	–	1209.4
308.15 K, 1830 kPa	1396.59	–
308.15 K, 3500 kPa	–	1220.4
308.15 K, 7000 kPa	–	1233.1
308.15 K, 10000 kPa	–	1243.7
308.15 K, 10020 kPa	1402.73	–
308.15 K, 13500 kPa	–	1255.8
308.15 K, 14980 kPa	1406.29	–
308.15 K, 16990 kPa	–	1267.5
308.15 K, 19750 kPa	1409.65	–
308.15 K, 20000 kPa	–	1277.5
308.15 K, 25860 kPa	1413.83	–
308.15 K, 30000 kPa	–	1310
308.15 K, 31480 kPa	1417.59	–
308.15 K, 37770 kPa	1421.72	–
308.15 K, 40000 kPa	–	1340.4
308.15 K, 44170 kPa	1425.82	–
308.15 K, 50000 kPa	–	1369.1
308.15 K, 50750 kPa	1429.95	–
308.15 K, 59590 kPa	1435.35	–
308.15 K, 60000 kPa	–	1396.7
308.15 K, 70000 kPa	–	1423.2
308.15 K, 80000 kPa	–	1448.6
308.15 K, 90000 kPa	–	1473
308.15 K, 100000 kPa	–	1496.6
308.15 K, 112500 kPa	–	1525.2
308.15 K, 125000 kPa	–	1552.6
308.15 K, 137510 kPa	–	1579
308.15 K, 150000 kPa	–	1603.7
313.15 K, 100 kPa	1390.55	–
313.15 K, 1830 kPa	1391.88	–
313.15 K, 10020 kPa	1397.99	–
313.15 K, 14980 kPa	1401.57	–
313.15 K, 19750 kPa	1404.95	–
